Where two headings read alike, the source gives them in different places.
Key:
[1] = test system: five strains of marine bacteria; assay: Marine bacteria growth assay, positive control (strain not specified); assay type: cell-based; details: 40 μL of 0.5 M per disc
Method: The ability of selected metabolites to inhibit the growth of bacteria was assessed using five strains of marine bacteria involved in marine surface biofilm formation, namely, B. subtilis, B. mojavensis, B. thuringiensis, P. putita and P. pseudoalcaligenes. Bacterial strains were maintained on Zobel marine agar plates. Sterile filter paper discs (4 mm) (GF/F; GE Healthcare, Little Chalfont, UK) were loaded with 40 μL samples of serial dilutions of each tested metabolite, allowed to dry at room temperature and then placed on agar plates (Zobel marine agar, pH = 7.3), which were seeded with a single strain of bacteria. Plates were incubated for 24 h at 25 °C. Marine bacteria growth inhibition was determined by measuring the zone of inhibition in mm around the filter paper disc. As a positive and negative control, standard discs were loaded with 40 μL of 0.5 M penicillin G (2 to 10 mm diameter) or solvent (40 μL methanol), respectively.

A. salina nauplii = assay: Artemia salina toxicity assay; assay type: in vivo; details: in vivo
Method: (§1) The short-term toxicity assay with A. salina nauplii was used to determine the toxicity of secondary metabolites. Hatching of A. salina nauplii was carried out in ASW (35‰) using 0.5 g of cysts incubated in 500 mL seawater at a temperature of 25 ± 1 °C and lateral illumination (1000 Lux). All cysts were kept in continuous suspension with aeration and 24 h later hatched larvae (instar I) were harvested. Toxicity assays were carried out in three independent experiments in 24-well plates with four replicates of each tested concentration. Ten nauplii per well were transferred with a Pasteur pipette into the 24-well plates and each well was filled with 2 mL of ASW and 50 μL of various concentrations of the tested compounds in methanol. Control treatments received 50 μL of methanol. Plates were incubated in the dark at 25 ± 1 °C for 48 h. Mortality was assessed by recording the number of individuals with no movement of their appendages within 10 seconds and is expressed as the percentage of the total number of assessed individuals for each concentration.
(§2) For EC50 or IC50 (the concentration that results in 50% stimulation or inhibition relative to the control) calculations in GraphPad Prism v.6, all data were fitted to the curve according to the following models for normalized response: Y = 100/(1 + 10^((X − LogIC50))) or Y = 100/(1 + 10^((LogEC50 − X))) depending on the trend of the curve.

[2] = Artemia salina toxicity assay; assay type: in vivo; details: Artemia salina, in vivo, read-out: EC50 Artemia salina toxicity (mortality)
Method: as §1, §2

in vivo = assay type: in vivo; details: Amphibalanus amphitrite, in vivo, read-out: LC50 Mortality; for LC50 at 24 h: 24 h exposure; for LC50 at 48 h: 48 h exposure; for LC50 at 72 h: 72 h exposure
Method: (§3) Adult A. amphitrite (Cirripedia, Balanidae) were collected from boat docks at Port Mikrolimano and Floisvos, Athens, Greece. Animals were cleaned of epibionts with a small hard brush and meticulously identified as individuals of the species. Adult barnacles were kept in separate aerated glass tanks (20 L) containing 200-μm filtered natural seawater at 27 °C and a 12:12 L:D photoperiod. Tanks were fed with 24-h hatched Artemia sp. (Branchiopoda) nauplii and Tetraselmis suecica (Chlorodendrophyceae) and Skeletonema costatum (Bacillariophyceae) algae each day and seawater was changed on alternate days. Upon stress to induce oviposition (exposure to air for 24 h or immersion in fresh water for 5 h), adults were returned to seawater for larval release. Hatched nauplii were attracted to a point light source, collected and placed into a beaker containing 2 or 3 L of 0.7 μm GF/F (GE Healthcare, Little Chalfont, UK )-filtered natural seawater at a density of approximately 1–2 nauplii/mL with gentle aeration. Nauplii were maintained at 27 °C at a 12:12 L:D photoperiod on a diet of C. gracilis (Bacillariophyceae) provided at a density of 2 × 10^5 cells/mL. Cultured in these conditions, nauplii metamorphosed to cyprids in 5 days. Aliquots of these cyprids were collected with a wide-mouthed Pasteur pipette and aged at 4 °C for 1 day prior to use in settlement assays. Only batches of cyprids that were active and had numerous oil cells, representing energy reserves, were used in settlement assays.
(§4) Assays were conducted by adding 10 cyprids into individual wells of a 24-well polystyrene sterile microplate (Orange Scientific, Braine l’Alleud, Belgium) with 2 mL of artificial sea water (ASW) (25‰) and various concentrations of the chemical compounds as listed in Table 1. These experiments were repeated at least three times with four replicates for each concentration of any given compound (n = 120 cyprids/compound). Stock solutions for all compounds were prepared in methanol (Scharlab, Barcelona, Spain) and serial dilutions were prepared in 0.7 μm (GF/F, GE Healthcare, Little Chalfont, UK), filtered sea water to have a final concentration of 2.5% methanol in each assay solution. Plates were covered and sealed with Parafilm® to avoid evaporation and incubated at 25 °C away from any light source and examined after 24, 48 and 72 h. Each animal was inspected under a stereomicroscope and its condition was recorded. […] Both permanently attached and metamorphosed individuals were counted as settled or juveniles. The remainder were counted as ‘no metamorphosis’, i.e. animals that responded to light touch and were still cyprids at the end of the experiments with no overt signs of metamorphosis.
as §2

cyprids of A. amphitrite = assay: whole plant or invertebrate; assay type: in vivo; details: for EC50 / IC50: Amphibalanus amphitrite; for EC50: read-out: EC50 No Metamorphosis; for IC50: read-out: IC50 Settlement; for EC50 values for settlement inhibition of barnacle cyprids (in words): consistently, 24-72 h
Method: as §3, §4, §2

Chaetoceros gracilis = Chaetoceros gracilis toxicity (phytoplankton growth) assay; assay type: cell-based; details: 96 h
Method: For phytoplankton growth toxicity assays, the criterion for assay validity was that the cell count of the negative control after 96 h should be ≥2 × 10^5 cells/mL [40].
The centric marine diatom C. gracilis Schütt (strain CCMP1315) was grown photoautotrophically in autoclaved artificial seawater (sea salts; Sigma-Aldrich, St. Louis, MO, USA) (30‰) supplemented with F/2 (half-strength medium f as subsequently modified) in 100 mL medium at 20 °C and with ambient air bubbled in the media. By monitoring cell density, an adjusted culture of >1 × 10^6 cells/mL was used for the toxicity assays. At 96 h, a 0.9 mL aliquot of each treatment was sampled, mixed with 0.1 mL Lugol and cell density was counted. Experiments were assumed valid if cell count in the control after 96 h was […].
as §2

Compound	zone of inhibition (diameter) [1]	A. salina exclusion criterion (>10-fold change in EC50 between 24 h and 48 h) (A. salina nauplii)	LC50 at 24 h [2]	LC50 at 48 h [2]	LC50 at 24 h (in vivo)	LC50 at 48 h (in vivo)	LC50 at 72 h (in vivo)	EC50 (cyprids of A. amphitrite; 24 h)	IC50 (cyprids of A. amphitrite; 24 h)	EC50 (cyprids of A. amphitrite; 48 h)	IC50 (cyprids of A. amphitrite; 48 h)	EC50 (cyprids of A. amphitrite; 72 h)	IC50 (cyprids of A. amphitrite; 72 h)	EC50 values for settlement inhibition of barnacle cyprids (in words) (cyprids of A. amphitrite)	toxic effect on cyprids (cyprids of A. amphitrite; in vivo)	C. gracilis exclusion criterion (EC50 compared with bromosphaerol) (Chaetoceros gracilis)	EC50 (Chaetoceros gracilis; Chaetoceros neogracilis)
CC1(C)S[C@@H]2[C@H](NC(=O)Cc3ccccc3)C(=O)N2[C@H]1C(=O)O [penicillin G]	2 to 10 mm	–	–	–	–	–	–	–	–	–	–	–	–	–	–	–	–
C=C1C[C@H](O)[C@H](Br)C(C)(C)[C@@]12CCC(C)=C(Cl)C2 [Compound 12, elatol]	–	did not pass this criterion	6590 nM	373 nM	327 nM	194 nM	61 nM	396 nM	89 nM	250 nM	73 nM	66 nM	42 nM	sub-micromolar	obvious toxic effect on cyprids	–	–
Cc1ccc(C2(C)CCC(=CBr)C2C)c(O)c1 (stereo not drawn) [Compound 4, iso-laurenisol]	–	did not pass this criterion	21100 nM	739 nM	3550 nM	2980 nM	2800 nM	10400 nM	120 nM	12400 nM	180 nM	5850 nM	340 nM	sub-micromolar	–	–	–
C#CC=CCC1OC(C(Br)CC)CC(OC(C)=O)C(Cl)CC1Cl (stereo not drawn) [Compound 22, laurencienyne]	–	–	3070 nM	9630 nM	6860 nM	10100 nM	71300 nM	8 nM	25 nM	10 nM	43 nM	58700 nM	55 nM	sub-micromolar	–	did not pass this criterion	2150 nM

Source: PMC6891695, “Evaluation of Antifouling Potential and Ecotoxicity of Secondary Metabolites Derived from Red Algae of the Genus Laurencia” (Marine Drugs, 2019)
